According to US8999359B2, “Composition that prevents damage to trees by harmful insects and a prevention method thereof” (Syngenta Crop Protection, Inc., priority 2004, dated 2015):

Tests used:
Assay type in all cases: in vivo
[1] = system: Adult Japanese Pine Sawyer; experiment: Insecticidal activity test on Japanese pine sawyer (sprayed pine feed trees)
Source text: 1. Insecticidal Activity Test on Japanese Pine Sawyer
After uniformly spraying pine feed trees with spraying solutions at prescribed concentrations using a sprayer, adult Japanese pine sawyers were used in testing to investigate the progress of their mortality and degree of infestation.

Pine Caterpillar Larva = experiment: Insecticidal activity test on pine caterpillar larva (spray)
Source text: 2. Insecticidal Activity Test on Pine Caterpillar Larva
The mortality of pine caterpillar larva was investigated after uniformly spraying pine feed trees and pine caterpillar larva with spraying solutions at prescribed concentrations using a sprayer.

Fall Webworm Larva = experiment: Insecticidal activity test on fall webworm larva (spray)
Source text: 3. Insecticidal Activity Test on Fall Webworm Larva
The progress of the mortality of fall webworm larva was investigated after uniformly spraying feed trees (cherry) and fall webworm larva with spraying solutions at prescribed concentrations using a sprayer.

CN1COCN(Cc2cnc(Cl)s2)/C1=N\[N+](=O)[O-] [Thiamethoxam, thiamethoxam]
Average infested area (cm2) ([1]; spraying solution 5 ppm): 1.8 cm2 | Mortality (%) After 1 day ([1]; spraying solution 5 ppm): 10% | Mortality (%) After 3 days ([1]; spraying solution 5 ppm): 60% | Mortality (%) After 7 days ([1]; spraying solution 5 ppm): 100% | Average infested area (cm2) ([1]; spraying solution 10 ppm): 0.5 cm2 | Mortality (%) After 1 day ([1]; spraying solution 10 ppm): 70% | Mortality (%) After 3 days ([1]; spraying solution 10 ppm): 80% | Mortality (%) After 7 days ([1]; spraying solution 10 ppm): 100% | Average infested area (cm2) ([1]; spraying solution 20 ppm): 0.4 cm2 | Mortality (%) After 1 day ([1]; spraying solution 20 ppm): 80% | Mortality (%) After 3 days ([1]; spraying solution 20 ppm): 100% | Average infested area (cm2) ([1]; spraying solution 40 ppm): 0.3 cm2 | Mortality (%) After 1 day ([1]; spraying solution 40 ppm): 100% | Mortality (%) After 1 day (Pine Caterpillar Larva; spraying solution 20 ppm): 10% | Mortality (%) After 3 days (Pine Caterpillar Larva; spraying solution 20 ppm): 40% | Mortality (%) After 7 days (Pine Caterpillar Larva; spraying solution 20 ppm): 50% | Mortality (%) After 1 day (Pine Caterpillar Larva; spraying solution 50 ppm): 20% | Mortality (%) After 3 days (Pine Caterpillar Larva; spraying solution 50 ppm): 60% | Mortality (%) After 7 days (Pine Caterpillar Larva; spraying solution 50 ppm): 80% | Mortality (%) After 1 day (Pine Caterpillar Larva; spraying solution 100 ppm): 50% | Mortality (%) After 3 days (Pine Caterpillar Larva; spraying solution 100 ppm): 80% | Mortality (%) After 7 days (Pine Caterpillar Larva; spraying solution 100 ppm): 100% | Mortality (%) After 1 day (Pine Caterpillar Larva; spraying solution 200 ppm): 80% | Mortality (%) After 3 days (Pine Caterpillar Larva; spraying solution 200 ppm): 100% | Mortality (%) After 1 day (Fall Webworm Larva; spraying solution 50 ppm): 0% | Mortality (%) After 3 days (Fall Webworm Larva; spraying solution 50 ppm): 30% | Mortality (%) After 7 days (Fall Webworm Larva; spraying solution 50 ppm): 50% | Mortality (%) After 1 day (Fall Webworm Larva; spraying solution 100 ppm): 20% | Mortality (%) After 3 days (Fall Webworm Larva; spraying solution 100 ppm): 80% | Mortality (%) After 7 days (Fall Webworm Larva; spraying solution 100 ppm): 80% | Mortality (%) After 1 day (Fall Webworm Larva; spraying solution 200 ppm): 30% | Mortality (%) After 3 days (Fall Webworm Larva; spraying solution 200 ppm): 90% | Mortality (%) After 7 days (Fall Webworm Larva; spraying solution 200 ppm): 100% | Mortality (%) After 1 day (Fall Webworm Larva; spraying solution 300 ppm): 80% | Mortality (%) After 3 days (Fall Webworm Larva; spraying solution 300 ppm): 100%

COP(=S)(OC)Oc1ccc([N+](=O)[O-])c(C)c1 [Fenitrothion, fenitrothion]
Average infested area (cm2) ([1]; spraying solution 5 ppm): 23.3 cm2 | Mortality (%) After 1 day ([1]; spraying solution 5 ppm): 10% | Mortality (%) After 3 days ([1]; spraying solution 5 ppm): 10% | Mortality (%) After 7 days ([1]; spraying solution 5 ppm): 10% | Average infested area (cm2) ([1]; spraying solution 10 ppm): 8.6 cm2 | Mortality (%) After 1 day ([1]; spraying solution 10 ppm): 0% | Mortality (%) After 3 days ([1]; spraying solution 10 ppm): 50% | Mortality (%) After 7 days ([1]; spraying solution 10 ppm): 80% | Average infested area (cm2) ([1]; spraying solution 20 ppm): 2.4 cm2 | Mortality (%) After 1 day ([1]; spraying solution 20 ppm): 20% | Mortality (%) After 3 days ([1]; spraying solution 20 ppm): 70% | Mortality (%) After 7 days ([1]; spraying solution 20 ppm): 100% | Average infested area (cm2) ([1]; spraying solution 40 ppm): 1.6 cm2 | Mortality (%) After 1 day ([1]; spraying solution 40 ppm): 90% | Mortality (%) After 3 days ([1]; spraying solution 40 ppm): 100% | Mortality (%) After 1 day (Pine Caterpillar Larva; spraying solution 100 ppm): 10% | Mortality (%) After 3 days (Pine Caterpillar Larva; spraying solution 100 ppm): 10% | Mortality (%) After 7 days (Pine Caterpillar Larva; spraying solution 100 ppm): 20% | Mortality (%) After 1 day (Pine Caterpillar Larva; spraying solution 200 ppm): 30% | Mortality (%) After 3 days (Pine Caterpillar Larva; spraying solution 200 ppm): 60% | Mortality (%) After 7 days (Pine Caterpillar Larva; spraying solution 200 ppm): 60% | Mortality (%) After 1 day (Pine Caterpillar Larva; spraying solution 500 ppm): 80% | Mortality (%) After 3 days (Pine Caterpillar Larva; spraying solution 500 ppm): 100% | Mortality (%) After 1 day (Pine Caterpillar Larva; spraying solution 1000 ppm): 100% | Mortality (%) After 1 day (Fall Webworm Larva; spraying solution 100 ppm): 0% | Mortality (%) After 3 days (Fall Webworm Larva; spraying solution 100 ppm): 10% | Mortality (%) After 7 days (Fall Webworm Larva; spraying solution 100 ppm): 20% | Mortality (%) After 1 day (Fall Webworm Larva; spraying solution 200 ppm): 30% | Mortality (%) After 3 days (Fall Webworm Larva; spraying solution 200 ppm): 60% | Mortality (%) After 7 days (Fall Webworm Larva; spraying solution 200 ppm): 70% | Mortality (%) After 1 day (Fall Webworm Larva; spraying solution 500 ppm): 80% | Mortality (%) After 3 days (Fall Webworm Larva; spraying solution 500 ppm): 100% | Mortality (%) After 1 day (Fall Webworm Larva; spraying solution 1000 ppm): 100%
